US20040024024A1, “Aromatic sulfone hydroxamates and their use as protease inhibitors” (priority 2001, published 2004)
Where a name gives a salt, the structure may show the parent alone.

Key:
Format in all cases: biochemical
Human recombinant MMP-9 = target: T1, Human recombinant MMP-9 (Homo sapiens, UniProt P14780); test: In vitro MMP inhibition, IC50 determination (fluorogenic substrate I)
T1 construct: made in house; host or cells: MMP-9-transfected HT1080 cells (spent media)
Method in brief: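 MMP-9 proenzyme purified from transfected HT1080 cell media, activated with APMA or trypsin. Compound dilutions in pH 7.5 Tris/NaCl/CaCl2 buffer with 0.05% polyoxyethylene 23 lauryl ether, incubated at room temperature with 4 μM MCA/Dpa substrate I. IC50 from fluorescence loss (ex 328, em 415 nm) versus inhibitor concentration.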

Human recombinant MMP-1 = target: T2, Human recombinant MMP-1 (Homo sapiens, UniProt P03956); test: as above
T2 construct: made in house; host or cells: MMP-1-transfected HT-1080 cells (spent media)
T2 sequence (P03956 100-469): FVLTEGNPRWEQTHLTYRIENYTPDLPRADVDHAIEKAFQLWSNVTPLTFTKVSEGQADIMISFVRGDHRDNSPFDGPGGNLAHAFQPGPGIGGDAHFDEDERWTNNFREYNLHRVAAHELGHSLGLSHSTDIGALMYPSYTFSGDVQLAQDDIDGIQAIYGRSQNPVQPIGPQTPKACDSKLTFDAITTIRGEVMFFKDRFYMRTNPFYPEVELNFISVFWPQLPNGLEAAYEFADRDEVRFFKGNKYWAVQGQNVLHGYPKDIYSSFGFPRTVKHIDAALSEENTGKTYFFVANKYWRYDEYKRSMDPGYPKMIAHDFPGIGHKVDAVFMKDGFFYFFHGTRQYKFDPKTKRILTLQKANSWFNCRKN
Method in brief: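 APMA- or trypsin-activated enzyme, purified from spent media of transfected HT-1080 cells, incubated at room temperature with 4 μM MCA-Pro-Leu-Gly-Leu-Dpa-Ala-Arg-NH2 and graded inhibitor in Tris buffer pH 7.5 (10 mM CaCl2, 0.05% Brij). Cleavage read by fluorescence (ex 328/em 415 nm); IC50 from fluorescence reduction versus inhibitor concentration.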

Human recombinant MMP-13 = target: T3, Human recombinant MMP-13 (Homo sapiens, UniProt P45452); test: In vitro MMP inhibition, Ki determination (fluorogenic substrate II)
T3 construct: made in house; host or cells: baculovirus / insect cells
Procedure: Several hydroxamates and salts thereof were analyzed in in vitro assays to determine their ability to inhibit the MMP cleavage of peptide substrates. Inhibition (Ki) and IC50 constants were calculated from the assayed hydroxamate-MMP interactions.
Human recombinant MMP-1, MMP-2, MMP-9, MMP-13, and MMP-14 were used in this assay. All enzymes were prepared in Assignee's laboratories following usual laboratory procedures. Protocols for the preparation and use of these enzymes are available in the scientific literature. See, e.g., Enzyme Nomenclature (Academic Press, San Diego, Calif., 1992) (and the citations therein). See also, Frije et al., J. Biol. Chem., 26(24), 16766-73 (1994).
The expressed proenzyme was first purified over a heparin agarose column, and then over a chelating zinc chloride column. The proenzyme was then activated by APMA for use in the assay. Further details on baculovirus expression systems may be found in, for example, Luckow et al., J. Virol., 67, 4566-79 (1993). See also, O'Reilly et al, Baculovirus Expression Vectors: A Laboratory Manual (W. H. Freeman and Co., New York, N.Y., 1992). See also, King et al., The Baculovirus Expression System: A Laboratory Guide (Chapman & Hall, London, England, 1992).
All MMPs were activated using 4-aminophenylmercuric acetate (“APMA”, Sigma Chemical, St. Louis, Mo.) or trypsin. MMP-9 also was activated using human recombinant MMP-3 (purified in Assignee's laboratory following standard cloning and purification techniques).
Two fluorogenic, methoxycoumarin-containing polypeptide substrates were used in the MMP inhibition assays:
MCA-ArgProLeuGlyLeuDpaAlaArgGluArgNH2 (II)
Here, “Dpa” is 3-(2,4-dinitrophenyl)-L-2,3-diaminopropionyl group, and “MCA” is 7-methoxycoumarin-4-yl acetyl. Substrate (I) was purchased from Baychem (Redwood City, Calif.), and substrate II was prepared Assignee's laboratory. Substrate I was used in the IC50 determination assays, while substrate II was used in the Ki determination assays. In the absence of MMP inhibitory activity, either substrate is cleaved at the Gly-Leu peptide bond. This cleavage separates the highly fluorogenic peptide from the 2,4-dinitrophenyl quencher, thus resulting in increase of fluorescent intensity.
The stock solutions of the assayed hydroxamates (or salts thereof) were prepared in 1% dimethyl sulfoxide (DMSO). These stock solutions were diluted in Buffer A (100 mM Tris-HCl, 100 mM NaCl, 10 mM CaCl2, 0.05% polyoxyethylene 23 lauryl ether, pH 7.5) to obtain solutions with different hydroxamate concentrations, i.e., assay solutions with different concentrations of the assayed MMP inhibitory compound. The experiment controls contained the same amount of Buffer A/DMSO as the assayed sample, but contained no hydroxamate (or salt thereof).
The assays from which the Ki determinations were made were performed as follows. The assayed hydroxamate samples were incubated in separate wells of untreated white polystyrene plates (Nunc Nalgene International, Rochester, N.Y.), and analyzed on a Tecan SpectraFlour Plus plate reader. The excitation wavelength was 330 nm, and the emission wavelength—420 nm. All samples (assayed hydroxamates and controls) were incubated in separate plate wells at room temperature for 1 hr in the presence of 4 μM of MMP substrate (II). In the absence of MMP inhibitory activity, substrate II was cleaved at the Gly-Leu bond resulting in an increase of relative fluorescence. Inhibition was observed as a reduced rate of this increase in relative fluorescence. The various hydroxamates were analyzed using a single low enzyme concentration with a single substrate concentration fixed at or below the Km. This protocol is a modification of method by Knight et al., FEBS Lett., 296(3), 263-266 (1992). Apparent inhibitory constants were determined by non-linear regression of reaction velocity as a function of inhibitor and enzyme concentration using Morrison's equation, as described by Kuzmic, Anal. Biochem. 286, 45-50 (2000). […]

[1] = substrate (I) 4 μM, room temperature, values not in parenthesis
[2] = substrate (II) 4 μM, 1 hr room temperature, apparent Ki, values in parenthesis

T1 sequence (P14780 107-707 limits assumed): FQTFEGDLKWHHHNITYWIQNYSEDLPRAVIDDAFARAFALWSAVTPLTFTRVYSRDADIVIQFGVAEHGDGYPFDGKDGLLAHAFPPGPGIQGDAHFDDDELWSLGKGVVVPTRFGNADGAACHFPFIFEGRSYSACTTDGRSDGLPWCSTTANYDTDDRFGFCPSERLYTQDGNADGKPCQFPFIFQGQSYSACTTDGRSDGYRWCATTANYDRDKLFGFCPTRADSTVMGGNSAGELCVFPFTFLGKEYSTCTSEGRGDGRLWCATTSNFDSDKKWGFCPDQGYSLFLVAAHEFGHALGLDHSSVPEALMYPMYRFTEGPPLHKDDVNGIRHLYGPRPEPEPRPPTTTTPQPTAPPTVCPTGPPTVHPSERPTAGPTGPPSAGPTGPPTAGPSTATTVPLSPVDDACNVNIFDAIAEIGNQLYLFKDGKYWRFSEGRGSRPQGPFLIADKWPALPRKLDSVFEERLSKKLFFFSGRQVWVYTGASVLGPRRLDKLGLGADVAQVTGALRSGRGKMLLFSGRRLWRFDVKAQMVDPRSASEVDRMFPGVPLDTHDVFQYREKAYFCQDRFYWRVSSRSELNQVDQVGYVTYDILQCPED

IC50 (Human recombinant MMP-9; value outside parenthesis) [nM] | IC50 (Human recombinant MMP-1; value outside parenthesis) [nM] | Ki (Human recombinant MMP-13; value in parenthesis) [nM] | SMILES | further results
180 | 6870 | 0.324 | O=C(CCCOc1ccc(S(=O)(=O)C2(C(=O)NO)CCOCC2)cc1)Nc1ccc(OC(F)(F)F)cc1 [Example 228] | –
294 | 5030 | 0.27 | Cc1cc(OC(F)(F)F)ccc1NC(=O)CCCOc1ccc(S(=O)(=O)C2(C(=O)NO)CCOCC2)cc1 [Example 229] | –
1690 | > 10000 | 0.895 | COCCN1CCC(C(=O)NO)(S(=O)(=O)c2ccc(OCCCc3cccc(-c4ccc(F)cc4)c3)cc2)CC1 [Example 140] | –
62.1 | > 10000 | 0.212 | CC(C)c1cccc(NC(=O)CCCOc2ccc(S(=O)(=O)C3(C(=O)NO)CCOCC3)cc2)c1 [Example 182] | –

The remaining lines, values behind:

SMILES | IC50 (Human recombinant MMP-9; value outside parenthesis) [nM] | IC50 (Human recombinant MMP-1; value outside parenthesis) [nM] | Ki (Human recombinant MMP-13; value in parenthesis) [nM] | further results
O=C(NO)C1(S(=O)(=O)c2ccc(OCCCc3cccc(-c4ccc([N+](=O)[O-])cc4)c3)cc2)CCOCC1 [Example 626] | – | – | – | IC50 (Human recombinant MMP-9; value outside parentheses): 885 nM; IC50 (Human recombinant MMP-1; value outside parentheses): > 10000 nM; Ki (Human recombinant MMP-13; value in parentheses): 7.5 nM
O=C(NO)C1(S(=O)(=O)c2ccc(OCCCc3cccc(-c4ccoc4)c3)cc2)CCOCC1 [Example 637] | – | – | – | IC50 (Human recombinant MMP-9; value outside parentheses): 830 nM; IC50 (Human recombinant MMP-1; value outside parentheses): > 10000 nM; Ki (Human recombinant MMP-13; value in parentheses): 4.63 nM
CCN1CCC(C(=O)NO)(S(=O)(=O)c2ccc(OCCCc3cccc(-c4ccccc4)c3)cc2)CC1 [Example 46] | – | – | – | IC50 (Human recombinant MMP-9; [1]): 1970 nM; IC50 (Human recombinant MMP-1; [1]): > 10000 nM; Ki (Human recombinant MMP-13; [2]): 2.29 nM
O=C(Cc1csc2ccccc12)NCCOc1ccc(S(=O)(=O)C2(C(=O)NO)CCOCC2)cc1 [Example 596] | – | – | – | IC50 (Human recombinant MMP-9; value outside parentheses): 194 nM; IC50 (Human recombinant MMP-1; value outside parentheses): > 10000 nM; Ki (Human recombinant MMP-13; value in parentheses): 0.398 nM
COCCN1CCC(C(=O)NO)(S(=O)(=O)c2ccc(OCCCc3nnc(-c4ccccc4C(F)(F)F)o3)cc2)CC1 [Example 178] | 1170 | > 10000 | 1.71 | –
O=C(NO)C1(S(=O)(=O)c2ccc(OCCCc3nc(-c4ccc(OC(F)(F)F)cc4)no3)cc2)CCN(C2CC2)CC1 [Example 51, 1-cyclopropyl-N-hydroxy-4-{[4-(3-{3-[4-(trifluoromethoxy)phenyl]-1,2,4-oxadiazol-5-yl}propoxy)phenyl]sulfonyl}piperidine-4-carboxamide Hydrochloride] | – | – | – | IC50 (Human recombinant MMP-9; [1]): 7980 nM; IC50 (Human recombinant MMP-1; [1]): > 10000 nM; Ki (Human recombinant MMP-13; [2]): 1.7 nM
O=C(NO)C1(S(=O)(=O)c2ccc(OCCCc3nc(-c4ccc(OC(F)(F)F)cc4)no3)cc2)CCOCC1 [Example 31, tetrahydro-N-hydroxy-4-[[4-[3-[3[4-(trifluoromethoxy)phenyl]-1,2,4-oxadiazol-5-yl]propoxy]phenyl]sulfonyl]-2H-pyran-4-carboxamide] | – | – | – | IC50 (Human recombinant MMP-9; [1]): 5650 nM; IC50 (Human recombinant MMP-1; [1]): > 10000 nM; Ki (Human recombinant MMP-13; [2]): 1.5 nM
O=C(NO)C1(S(=O)(=O)c2ccc(OCCCc3cccc(Br)c3)cc2)CCOCC1 [Example 154] | 111 | > 10000 | 0.95 | –
O=C(NO)C1(S(=O)(=O)c2ccc(OCCCc3cncc(-c4ccc(F)cc4)c3)cc2)CCOCC1 [Example 523] | – | – | – | IC50 (Human recombinant MMP-9; value outside parentheses): 1650 nM; IC50 (Human recombinant MMP-1; value outside parentheses): 8070 nM; Ki (Human recombinant MMP-13; value in parentheses): 0.234 nM
O=C(CCCOc1ccc(S(=O)(=O)C2(C(=O)NO)CCOCC2)cc1)Nc1cccc(OC(F)(F)F)c1 [Example 181] | 26.4 | > 10000 | 0.27 | –
